Read-outs that look alike come from different tables or passages of the source.
Assays:
[1] = target: T1, JAK3 enzyme (Homo sapiens, UniProt P52333); experiment: JAK Caliper Enzyme Assay at 4 μM ATP; format: biochemical
T1 sequence (P52333 1-1124): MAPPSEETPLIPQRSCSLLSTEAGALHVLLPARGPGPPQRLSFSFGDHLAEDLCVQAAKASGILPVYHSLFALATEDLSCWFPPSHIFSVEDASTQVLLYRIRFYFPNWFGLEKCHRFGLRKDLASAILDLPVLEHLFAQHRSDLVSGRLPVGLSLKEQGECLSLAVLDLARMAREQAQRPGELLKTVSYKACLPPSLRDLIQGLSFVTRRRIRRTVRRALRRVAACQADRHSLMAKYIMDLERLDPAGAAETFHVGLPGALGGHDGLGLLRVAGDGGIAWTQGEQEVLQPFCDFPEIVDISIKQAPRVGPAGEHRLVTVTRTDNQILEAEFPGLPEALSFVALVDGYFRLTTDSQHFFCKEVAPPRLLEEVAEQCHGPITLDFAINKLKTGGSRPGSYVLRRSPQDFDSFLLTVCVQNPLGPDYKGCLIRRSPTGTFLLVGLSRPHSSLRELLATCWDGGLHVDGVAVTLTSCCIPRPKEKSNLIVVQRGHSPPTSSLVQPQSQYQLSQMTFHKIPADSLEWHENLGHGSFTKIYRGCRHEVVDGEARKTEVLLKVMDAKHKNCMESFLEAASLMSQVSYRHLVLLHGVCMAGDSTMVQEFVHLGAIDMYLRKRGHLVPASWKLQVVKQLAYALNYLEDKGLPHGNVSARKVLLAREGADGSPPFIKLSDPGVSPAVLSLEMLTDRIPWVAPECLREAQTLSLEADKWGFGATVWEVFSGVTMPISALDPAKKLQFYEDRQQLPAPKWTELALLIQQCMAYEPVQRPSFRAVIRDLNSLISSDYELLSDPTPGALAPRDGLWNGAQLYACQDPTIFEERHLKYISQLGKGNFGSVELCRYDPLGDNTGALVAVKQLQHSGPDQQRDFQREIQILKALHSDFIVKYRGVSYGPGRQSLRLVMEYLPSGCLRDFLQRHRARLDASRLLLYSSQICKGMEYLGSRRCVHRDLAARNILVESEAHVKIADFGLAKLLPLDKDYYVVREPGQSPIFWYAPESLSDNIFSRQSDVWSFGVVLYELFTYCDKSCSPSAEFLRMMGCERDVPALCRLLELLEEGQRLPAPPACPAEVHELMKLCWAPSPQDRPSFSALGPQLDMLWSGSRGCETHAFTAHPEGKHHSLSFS
Summary of the method: (§1)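 Peptide phosphorylation by the kinase, adjusted to 20%-30% conversion, is measured by microfluidic separation of substrate and product on a Caliper LC3000. Compounds run as 11-point half-log series from a 600 μM DMSO top concentration.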

[2] = target: T1, JAK3 enzyme; experiment: JAK Caliper Enzyme Assay at 1 mM ATP; format: biochemical
Summary of the method: as §1

[3] = Stability of JAK3 Covalent Inhibitors in Human Whole Blood; format: in vitro ADME; conditions: 1 μM test compound, 37° C., 180 min incubation; for half-life at 1 μM: both sexes, read-out: Human blood stability t1/2
Method: Stability of JAK3 Covalent Inhibitors in Rat and Human Whole Blood
Rat blood was collected from 3 male Sprague-Dawley rats (200-250 g, Charles River Laboratories) and pooled for each study. Human blood was collected from healthy subjects at the Occupational Health & Wellness Center at Pfizer, Groton, Conn. and pooled for each study. Both rat and human blood was collected freshly into K2-EDTA tubes and kept on ice. An aliquot of the blood was transferred to microtubes and pre-warmed for 10 min at 37° C. using a heat block. The test compound was then added (1 μM final concentration) and the incubation was continued for 180 min at 37° C. in duplicates. An aliquot of the incubation mixture was removed at designated time points during the course of the incubation, mixed with an aliquot of acetonitrile containing an internal standard, vortexed and centrifuged. The resulting supernatants were removed and subjected to LC-MS/MS analyses to determine parent compound concentrations. Peak area ratios of the parent compound vs the internal standard were used to determine the % of parent compound remaining vs incubation time.

[4] = system: IL-15 induced P-STAT5 in human PBMC; experiment: PBMC IL-15 Induced P-STAT5; format: cell-based
Summary of the method: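 Flow cytometry gated on total lymphocytes measured STAT5 staining (Alexa Fluor 647 antibody, overnight, 4 °C) in fixed, methanol-permeabilised human PBMC. Cells had received compound for 15 min at 37 °C (0.2% DMSO final), followed by 41 ng/mL final human IL-15 for 15 min.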

[5] = Homo sapiens, PBMC, read-out: PBMC IL15_pSTAT5_IC50 (nM)
[6] = human PBMC, IL-15 final 41 ng/mL, read-out: PBMC IL15_pSTAT5_IC50

SMILES | IC50 [1] [nM] | IC50 [2] [nM] | half-life at 1 μM [3] [h] | IC50 [4, 5] [nM] | IC50 [4, 6] [nM] | Human blood stability t1/2 [3] [h]
C=CC(=O)N1CC[C@@H](Nc2cnc3[nH]cc(C(=O)N[C@H](C)COC)c3n2)C[C@H]1C (single isomer, unassigned) [Example 58] | 2.77 | 282 | > 6 | 4740 |  | 
C=CC(=O)N1C[C@@H](Nc2cnc3[nH]cc(C(=O)N[C@@H](C)COC)c3n2)CC[C@H]1C (single isomer, unassigned) [Example 67] | 0.511 | 25 | > 6 |  | 439 | 
C=CC(=O)N1C[C@H](Nc2cnc3[nH]cc(C(=O)N[C@H](C)COC)c3n2)CC[C@@H]1C (single isomer, unassigned) [Example 69] | 0.782 | 137 | > 6 |  | 2610 | 
C=CC(=O)N1CC[C@H](Oc2cnc3[nH]cc(C(=O)N[C@@H](C)COC)c3n2)C[C@H]1C (single isomer, unassigned) [Example 72] | 1.13 | 80 | 2.77 |  | 415 | 
C=CC(=O)N1C[C@@H](Nc2cnc3[nH]cc(C(=O)NCC)c3n2)CC[C@H]1C (single isomer, unassigned) [Example 75] | 1.6 | 316 | > 6 |  | 2280 | 
C=CC(=O)N1CC(Nc2cnc3[nH]cc(C(=O)NCC)c3n2)CCC1C (single isomer, unassigned) [Example 76] | 0.566 | 136 | > 6 |  | 1150 | 
C=CC(=O)N1CC[C@H](Oc2cnc3[nH]cc(C(=O)NCC)c3n2)C[C@H]1C (single isomer, unassigned) [Example 78] | 1.83 | 314 | > 6 |  | 935 | 
C=CC(=O)N1C[C@@H](COCCC#N)C[C@@H](Nc2ncnc3[nH]ccc23)C1 (single isomer, unassigned) [Example 100] | 76.3 | 2660 |  |  | > 10000 | 3.52
C=CC(=O)N1CC[C@@H](Nc2cnc3[nH]cc(C(=O)N[C@@H](C)COC)c3n2)C[C@H]1C (stereo in doubt) [Example 56, 2-{[(2R,4R)-1-acryloyl-2-methylpiperidin-4-yl]amino}-N-[(2S)-1-methoxypropan-2-yl]-5H-pyrrolo[2,3-b]pyrazine-7-carboxamide] | 0.927 | 70 | > 6 | 1600 |  | 
C=CC(=O)N1CCC[C@H](Oc2cnc3[nH]cc(C(=O)N[C@@H](C)COC)c3n2)C1 [Example 50, 2-{[(3S)-1-acryloylpiperidin-3-yl]oxy}-N-[(2S)-1-methoxypropan-2-yl]-5H-pyrrolo[2,3-b]pyrazine-7-carboxamide] | 1.09 | 91 | > 6 |  | 431 | 
C=CC(=O)N1CC[C@H](Oc2cnc3[nH]cc(C(=O)N[C@@H](C)COC)c3n2)C1 [Example 52, 2-{[(3S)-1-acryloylpyrrolidin-3-yl]oxy}-N-[(2S)-1-methoxypropan-2-yl]-5H-pyrrolo[2,3-b]pyrazine-7-carboxamide] | 1.02 | 153 | 2.78 |  | 627 | 
C=CC(=O)N1CCC(N(C)c2cnc3[nH]cc(C(=O)NCC)c3n2)CC1 [Example 60, 2-[(1-acryloylpiperidin-4-yl)(methyl)amino]-N-ethyl-5H-pyrrolo[2,3-b]pyrazine-7-carboxamide] | 0.448 | 130 | 2.97 |  | 379 | 
C=CC(=O)N1C[C@H](Nc2ncnc3[nH]ccc23)C[C@H](O)[C@@H]1C [Example 133] | 1.11 | 76 |  |  | 302 | 3.97

The next lines start with results.

IC50 [1] [nM] | IC50 [2] [nM] | half-life at 1 μM [3] [h] | SMILES | IC50 [4, 5] [nM] | IC50 [4, 6] [nM] | Human blood stability t1/2 [3] [h]
1.26 | 152 | 1.76 | C=CC(=O)N1C[C@@H](CO)C[C@@H](Nc2ncnc3[nH]ccc23)C1 (single isomer, unassigned) [Example 98] |  | 932 | 
0.858 | 77 | 2.87 | C=CC(=O)N1C[C@@H](Nc2ncnc3[nH]ccc23)CC[C@@H]1[C@@H](C)O (single isomer, unassigned) [Example 111] |  | 537 | 
0.586 | 141 | > 6 | C=CC(=O)N1CC[C@@H](Nc2cnc3[nH]cc(C(=O)NCC)c3n2)C1 (single isomer, unassigned) [Example 243] |  | 1730 | 
0.25 | 56 | 4.32 | C=CC(=O)N1CCC(Nc2cnc3[nH]cc(C(=O)NCCCC(F)(F)F)c3n2)C1 (stereo in doubt) [Example 237, 2-{[(3S)-1-acryloylpyrrolidin-3-yl]amino}-N-(4,4,4-trifluorobutyl)-5H-pyrrolo[2,3-b]pyrazine-7-carboxamide] |  | 780 | 
0.124 | 23 | 4.58 | C=CC(=O)N1CCC(Nc2cnc3[nH]cc(C(=O)NCC(C)C)c3n2)C1 (stereo in doubt) [Example 256, 2-{[(3S)-1-acryloylpyrrolidin-3-yl]amino}-N-(2-methylpropyl)-5H-pyrrolo[2,3-b]pyrazine-7-carboxamide] |  | 531 | 
14 | 1320 | > 6 | C=CC(=O)N1CC[C@@H](Oc2cnc3[nH]cc(C(=O)NCC)c3n2)C1 [Example 87, (R)-2-[(1-acryloylpyrrolidin-3-yl)oxy]-N-ethyl-5H-pyrrolo[2,3-b]pyrazine-7-carboxamide] |  | 6490 | 
2.4 | 589 | > 6 | C=CC(=O)N1C[C@@H](O)C[C@@H](Nc2ncnc3[nH]cc(C#N)c23)C1 [Example 113, 4-{[(3R,5S)-1-Acryloyl-5-hydroxypiperidin-3-yl]amino}-7H-pyrrolo[2,3-d]pyrimidine-5-carbonitrile] |  | 1940 | 
7.65 | 1100 | 2.45 | C=CC(=O)N1CCC(Oc2cnc3[nH]cc(-c4ncnn4C(C)C)c3n2)CC1 [Example 123] |  | 3040 | 
5.89 | 1100 | 4.86 | C=CC(=O)N1CCC(Oc2cnc3[nH]cc(-c4ncn(C(C)C)n4)c3n2)CC1 [Example 124, 1-[4-({7-[1-(Propan-2-yl)-1H-1,2,4-triazol-3-yl]-5H-pyrrolo[2,3-b]pyrazin-2-yl}oxy)piperidin-1-yl]prop-2-en-1-one] |  | 2430 | 
1.57 | 109 | > 6 | C=CC(=O)N1CCN(c2cnc3[nH]cc(C(=O)N[C@@H]4COC[C@@H]4C4CC4)c3n2)CC1(C)C [Example 139, 2-(4-acryloyl-3,3-dimethylpiperazin-1-yl)-N-[(3S,4R)-4-cyclopropyltetrahydrofuran-3-yl]-5H-pyrrolo[2,3-b]pyrazine-7-carboxamide] |  | 711 | 
